pIC50: −log10 of the molar value.
These compounds were tested against T1, Cholesteryl ester transfer protein (Homo sapiens, UniProt P11597) (assay: Inhibition of recombinant human CETP-mediated transfer of [3H]CE from HDL to LDL).
T1 sequence (P11597 whole entry): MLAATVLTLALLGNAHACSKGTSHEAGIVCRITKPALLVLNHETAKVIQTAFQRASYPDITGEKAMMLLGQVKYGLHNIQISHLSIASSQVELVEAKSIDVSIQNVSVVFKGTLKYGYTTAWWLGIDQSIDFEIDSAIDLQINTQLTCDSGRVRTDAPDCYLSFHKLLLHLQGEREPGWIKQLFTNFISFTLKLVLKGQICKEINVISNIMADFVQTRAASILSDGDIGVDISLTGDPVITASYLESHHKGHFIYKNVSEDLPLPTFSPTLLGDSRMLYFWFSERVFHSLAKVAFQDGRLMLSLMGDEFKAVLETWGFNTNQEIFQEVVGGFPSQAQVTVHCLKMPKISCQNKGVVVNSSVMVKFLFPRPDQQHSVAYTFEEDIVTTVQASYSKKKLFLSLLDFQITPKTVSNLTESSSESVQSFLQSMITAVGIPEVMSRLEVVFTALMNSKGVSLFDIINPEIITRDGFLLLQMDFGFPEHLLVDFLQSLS

pIC50 | Structure (SMILES)
< 4.00 | OC(CN(Cc1ccccc1C(F)(F)F)c1cccc(F)c1)C(F)(F)F (stereo not drawn)
5.30 | COc1cc(N(Cc2cccc(SC(F)(F)F)c2)C[C@@H](O)C(F)(F)F)cc(OC)c1OC
4.82 | OC(CN(Cc1cccc(C(F)(F)F)c1)c1ccccc1)C(F)(F)F (stereo not drawn)
4.40 | OC(CN(Cc1cccc(C(F)(F)F)c1)c1cccc(F)c1)C(F)(F)F (stereo not drawn)
< 4.00 | OC(CN(Cc1ccccc1)c1cccc(F)c1)C(F)(F)F (stereo not drawn)
< 4.00 | Cc1cccc(CN(CC(O)C(F)(F)F)c2cccc(F)c2)c1 (stereo not drawn)

Structure (SMILES) | pIC50
OC(CN(Cc1ccc(OC(F)(F)F)cc1)c1cccc(Oc2ccccc2)c1)C(F)(F)F (stereo not drawn) | 5.40

Each compound was assayed against T1, Cholesteryl ester transfer protein (assay: Tested for inhibiting CETP-mediated transfer of [3H]-CE from HDL to LDL in vitro under buffered assay conditions in human serum.).
Type: cell-free

pIC50 | Structure (SMILES)
< 3.70 | OC(CN(Cc1cccc(C(F)(F)F)c1)c1cccc(F)c1)C(F)(F)F (stereo not drawn)

Reference: ChEMBL document CHEMBL1133595, “Discovery of chiral N,N-disubstituted trifluoro-3-amino-2-propanols as potent inhibitors of cholesteryl ester transfer protein” (J Med Chem, 2000)
